Legend:
HSV Strain 17syn+ = assay: Acyclovir escape mutants after 10 serial passages in rabbit skin cells; format: cell-based, Herpes Simplex Virus; details: 10 passages, 50 μM acyclovir alone or with 2% tranexamic acid; plated with 100 μM acyclovir vs. none
[1] = test system: HO-1, a clinical isolate of HSV-1 that is multiple drug resistant; assay: Viral yields of multiple drug resistant HSV-1 isolate HO-1, plaque assay; format: cell-based, Herpes Simplex Virus Type 1; details: 2% tranexamic acid, MOI 5, 24 hpi
cold sores = assay: Topical tranexamic acid on cold sore outbreaks in human subjects; format: in vivo
HSV-1 = assay: Effect of 2% TA on HSV-1 DNA replication; format: cell-based, Herpes Simplex Virus Type 1; details: MOI 0.05 and 0.5
rabbit skin cells = details: 48 h

| Structure (SMILES) | Ratio of Acyclovir Resistant (ACVr) Virus (HSV Strain 17syn+) | effect on HO-1 viral yields [1] | time to resolution of cold sore outbreak symptoms (cold sores; 3% (w/v) topically several times a day, three human subjects) [h] | cold sore outbreaks during one year (usual 3 to 5) (cold sores; 3 to 10% (w/v) applied to face daily for approximately one year, one subject) | time to healing of cold sore (cold sores; 5% (w/v) aqueous solution, about 0.25 mL, 5 times, one subject) [h] | outcome of cold sore outbreak (cold sores; 10% (w/v) topically a single time, one subject) | replication of HSV DNA (HSV-1) | CC50 (rabbit skin cells) [mM] |
| --- | --- | --- | --- | --- | --- | --- | --- | --- |
| Nc1nc2c(ncn2COCCO)c(=O)[nH]1 [Acyclovir, acyclovir] | 0.0044 |  |  |  |  |  |  |  |
| NC[C@H]1CC[C@H](C(=O)O)CC1 [tranexamic acid] |  | effective | ≤ 48 | one | ≤ 36 | the blister was gone and the outbreak had ceased | significantly reduces the replication of HSV DNA | 320 |
